In article PMC9654711, “Neuroprotective Action of Coumarin Derivatives through Activation of TRKB-CREB-BDNF Pathway and Reduction of Caspase Activity in Neuronal Cells Expressing Pro-Aggregated Tau Protein” (International Journal of Molecular Sciences, 2022):

Legend:
p-CREB (S133) = experiment: Immunoblot of p-CREB (S133); type: cell-based, human; settings: BDNF 100 ng/mL, LMDS-1/2 10 μM; induced untreated 72%; Figure 6B
Experimental: (§1) ∆K280 tauRD-DsRed SH-SY5Y cells in 6-well plates (5 × 10^5/well) were treated with retinoic acid (10 µM) on day 1, followed by LMDS-1 or -2 (10 µM) and doxycycline (2 µg/mL) addition on day 2 as described. ERK inhibitor U0126 or PI3K inhibitor wortmannin (10 μM) (LC Laboratories, Woburn, MA, USA) was added on day 6. On day 8, the cells were collected for BDNF, BCL2, BAX and total/phosphorylated TRKB, ERK, AKT, CREB protein analyses as described.
(§2) ∆K280 tauRD-DsRed SH-SY5Y cells were lysed in buffer containing 50 mM Tris-HCl (pH 8.0), 150 mM NaCl, 1 mM EDTA (pH 8.0), 1 mM EGTA (pH 8.0), 0.1% SDS, 0.5% sodium deoxycholate, 1% Triton X-100 and protease (Sigma-Aldrich)/phosphatase (Roche, Basel, Switzerland) inhibitor cocktails. After two sonications with an interval of 30 min on ice, cell lysates were collected by centrifugation at 14,000× g for 30 min at 4 °C. Protein concentrations were determined using a Bradford assay (Bio-Rad, Hercules, CA, USA). Protein samples (25 µg) were separated by 10–12% SDS-PAGE and transferred to polyvinylidene difluoride (PVDF) membranes (Sigma-Aldrich). After blocking for 2 h with 10% skimmed milk or 5% BSA in 0.1% Tween 20 in Tris-buffered saline (TBST), the membrane was incubated with primary antibody against BDNF (1:500; Santa Cruz, Santa Cruz, CA, USA), BCL2 (1:500; BioVision), BAX (1:500; BioVision), TRKB (1:1000; Cell Signaling, Danvers, MA, USA), p-TRKB (Y516) (1:1000; Cell Signaling), p-TRKB (Y817) (1:1000; Millipore, Billerica, MA, USA), ERK (1:1000; Cell Signaling), p-ERK (T202/Y204) (1:500; Cell Signaling), AKT (1:1000; Cell Signaling), p-AKT (S473) (1:1000; Cell Signaling), CREB (1:1000; Santa Cruz), p-CREB (S133) (1:1000; Millipore), JNK (1:1000; Cell Signaling), p-JNK (T183/Y185) (1:1000; Cell Signaling) or loading control glyceraldehyde-3-phosphate dehydrogenase (GAPDH) (1:1000; MDBio, Taipei, Taiwan). After three washes with TBST, the immune complexes were detected using horseradish peroxidase-conjugated goat anti-mouse or goat anti-rabbit secondary IgG antibody (1:5000, GeneTex, Irvine, CA, USA) and enhanced chemiluminescence substrates luminol and peroxide (Millipore). The primary and secondary antibodies used were diluted with TBST. The chemiluminescent detection was performed on ImageQuant™ LAS 4000mini (GE Healthcare).

p-TRKB (Y516 and Y817) = experiment: Immunoblot of p-TRKB (Y516 and Y817); type: cell-based, human; settings: BDNF 100 ng/mL, LMDS-1/2 10 μM; induced untreated 77–83%; Figure 6B
Experimental: as §1, §2

[1] = test system: ΔK280 tauRD-DsRed SH-SY5Y folding reporter cells; experiment: High-content analysis of ΔK280 tauRD-DsRed fluorescence and cell number (folding reporter); type: cell-based, human; settings: BDNF at 100 ng/mL, LMDS-1/2 at 10 μM; untreated = 100%; Figure 6A
Experimental: (§3) On day 1, ∆K280 tauRD-DsRed SH-SY5Y cells were seeded in a 96-well plate (3 × 10^4/well), with retinoic acid (10 µM; Sigma-Aldrich) added to induce neuronal differentiation. […] […] For ROS measurement, dichloro-dihydro-fluorescein diacetate (DCFH-DA, 10 µM; Invitrogen, Carlsbad, CA, USA) was added to the cells on day 8 and incubated at 37 °C for 30 min.

[2] = test system: ΔK280 tauRD-DsRed SH-SY5Y cells; experiment: High-content analysis of neurite outgrowth; type: cell-based, human; settings: 10 µM
Experimental: As described, ∆K280 tauRD-DsRed SH-SY5Y cells were seeded in a 24-well plate (5 × 10^4/well) with retinoic acid addition on day 1, treated with tested compounds (10 µM) and ∆K280 tauRD-DsRed expression was induced with doxycycline (2 μg/mL) on day 2. On day 8, after being fixed in 4% paraformaldehyde for 15 min, permeabilized in 0.1% Triton X-100 for 10 min and blocked in 3% bovine serum albumin (BSA) for 20 min, the cells were stained with TUBB3 (neuronal class III β-tubulin) primary antibody (1:1000; BioLegend, San Diego, CA, USA) at 4 °C overnight, followed by goat anti-rabbit Alexa Fluor® 555 secondary antibody (1:1000; Molecular probes) at room temperature for 2 h, with 4′-6-diamidino-2-phenylindole (DAPI, 0.1 µg/mL; Sigma-Aldrich) included for nuclei staining. Neuronal images were captured using the high-content analysis system as described. Neurite total length (μm), processes (primary neurite extensions projecting directly from the cell body) and branching (points at which primary neurites bifurcated) were analyzed using Neurite Outgrowth Application Module (MetaXpress; Molecular Devices). Around 5000 cells were analyzed in each of three independent experiments for each sample.

[3] = High-content analysis of ΔK280 tauRD-DsRed fluorescence and cell number (folding reporter); type: cell-based, human; settings: human; induced ΔK280 tauRD-DsRed SH-SY5Y; compounds 2.5–10 µM; read-out: IC50 cytotoxicity based on the cell number analyzed
Experimental: as §3

[4] = Oxygen radical antioxidant capacity (ORAC) assay; settings: compound at 100 μM
Experimental: In addition, an oxygen radical antioxidant capacity (ORAC) assay was performed using an OxiSelect™ kit according to the manufacturer’s instruction (Cell Biolabs, San Diego, CA, USA). Briefly, Trolox standards (2.5–50 μM) and samples (4–100 μM) were diluted with 50% acetone. Blank (50% acetone), standards and samples were mixed with fluorescein and incubated at 37 °C for 30 min. Following the free radical initiator 2,2′-azobis(2-methylpropionamidine) dihydrochloride (AAPH), the produced peroxyl radicals (ROO•) quench the fluorescent probe over time. Antioxidants present in the assay block the peroxyl radical oxidation of the fluorescent probe. The course of the reaction was recorded for 60 min, with one measurement every five minutes using a BioTek FLx800 microplate reader. The excitation and emission wavelengths were set at 480 nm and 520 nm, respectively. To quantify the oxygen radical antioxidant activity in a sample, the area under the curve (AUC) for blank, standard and samples was calculated. After subtraction of the blank, the equivalent Trolox concentrations of samples were expressed based on the Trolox standard curve.

[5] = target: T1, E. coli-expressed ΔK280 tauRD protein (Homo sapiens, UniProt P10636, DEL597-597); experiment: Anti-ΔK280 tauRD aggregation assay (thioflavin T); type: biochemical; settings: compounds tested 1–10 μM, 20 μM protein, 48 h, linear interpolation, read-out: EC50 for ΔK280 tauRD aggregation inhibition
T1 construct: assessed by using E. coli-expressed ΔK280 tauRD protein; made in house; host or cells: E. coli
Experimental: Thioflavin T is widely used to visualize and quantify the presence of misfolded amyloid protein aggregates in vitro [74]. The tau aggregation inhibiting potential of Congo red, LM-031 and LMDS-1 to -4 was assessed by using E. coli-expressed ΔK280 tauRD protein [28]. Briefly, purified ΔK280 tauRD protein (20 μM) was incubated with Congo red or coumarin compounds (1–10 μM) in 150 mM NaCl and 20 mM Tris-HCl pH8.0, at 37 °C with shaking for 48 h to form aggregates. Then, thioflavin T (final 5 μM; Acros Organics, Geel, Belgium) was added and incubated for 25 min at room temperature. Fluorescence intensity of samples was recorded at excitation/emission wavelengths of 420/485 nm using an FLx800 microplate reader (BioTek, Winooski, VT, USA). The half maximal effective concentration (EC50) values were calculated by using a linear interpolation method.

[6] = DPPH free radical-scavenging assay; settings: compounds tested 10–80 μM; DPPH 100 µM; linear interpolation
Experimental: The potential free radical-scavenging activity of test compounds was assayed using stable free radical 1,1-diphenyl-2-picrylhydrazyl (DPPH) (Sigma-Aldrich). Briefly, kaempferol, LM-031 or LMDS-1 to -4 (10–80 µM) was added to DPPH (100 µM in 99% ethanol). The solution was vortexed for 15 s, left for 30 min at room temperature, the mixture was transferred to a 96-well UV-transparent microplate and the absorbance at 517 nm was measured using a Multiskan^TM GO microplate spectrophotometer (Thermo Fisher Scientific, Waltham, MA, USA). Radical-scavenging activity was calculated using the equation: 1 − (absorbance of sample/absorbance of control) × 100%, and EC50 estimated using the linear interpolation method.

[7] = target: T2, TRKB-ECD-His (extracellular domain of TRKB) (Homo sapiens, UniProt Q16620); experiment: Tryptophan fluorescence quenching assay; settings: TRKB-ECD-His 50 nM in PBS; excitation 295 nm, emission 330 nm; compounds 0–1000 nM; read-out: TRKB-ECD binding affinity (KD)
T2 construct: extracellular domain of TRKB (TRKB-ECD) (residues 32–429, XP_016870240); Saccharomyces cerevisiae α-factor secretion signal (N, cleaved yes); made in house; host or cells: Pichia pastoris
Description: The cDNA fragment containing the full-length extracellular domain of TRKB (TRKB-ECD) (residues 32–429, XP_016870240) was amplified from pDONR223-NTRK2 plasmid (Addgene, Watertown, MA, USA) using forward primer 5′-ctcgagaaaagagaggctgaagctTGTCCCACGTCCTGAAATG (XhoI site and Kex2 cleavage of the signal sequence in lowercase letters) and reverse primer 5′-gtcgac[…] (SalI site in lowercase letters). After cloning and sequencing, the TRKB-ECD fragment was excised with XhoI and SalI and subcloned into Pichia expression vector pGAPZα A (Invitrogen). The AvrII-linearized plasmid was then transformed into Pichia pastoris, and stable transformants selected and cultured at 30 °C for 4 days for constitutive expression of recombinant His-tagged TRKB-ECD. The secreted TRKB-ECD-His in cultured medium was purified using Ni-NTA His•Bind resins (Novagen, Madison, WI 53719, USA) according to the supplier’s instructions. Protein purity was examined by Coomassie blue staining of SDS-polyacrylamide gel as well as immunoblotting using anti-His (1:2000; Acris, Herford, Germany) and anti-TRKB (1:1000; Cell Signaling) antibodies.
The interaction between TRKB-ECD-His and LM-031, LMDS-1 or LMDS-2 was determined by tryptophan fluorescence titration. 7,8-DHF (Sigma-Aldrich) was included as a positive control. Tryptophan fluorescence spectra of TRKB-ECD-His (50 nM in PBS) were obtained before and after titration with different concentrations of test compounds (0–1000 nM). The fluorescent quenching was conducted in a cuvette with a 1 cm path length cell by an F-7000 fluorescence spectrophotometer (Hitachi, Tokyo, Japan) at room temperature. The intrinsic fluorescence spectra of TRKB were recorded with excitation wavelength set at 295 nm and emission wavelength in the range 300–400 nm. The dissociation constant (KD) of 7,8-DHF, LM-031, LMDS-1 and LMDS-2 to TRKB was determined by fitting the normalized fluorescence intensity at 330 nm under different concentrations of test compounds using the equation derived from Liu et al.:KD = [P]T (f − 1) + [D]T (1/f − 1), where f is the fractional change, and [P]Tand [D]Tare the total concentration of TRKB-ECD-His protein and test compound, respectively.

T1 sequence (P10636 with tags, fused parts or gaps DEL597-597): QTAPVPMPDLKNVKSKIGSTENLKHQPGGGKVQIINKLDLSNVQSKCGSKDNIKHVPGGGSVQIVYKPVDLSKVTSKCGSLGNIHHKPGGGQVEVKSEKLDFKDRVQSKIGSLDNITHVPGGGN
T2 sequence (Q16620 32-429): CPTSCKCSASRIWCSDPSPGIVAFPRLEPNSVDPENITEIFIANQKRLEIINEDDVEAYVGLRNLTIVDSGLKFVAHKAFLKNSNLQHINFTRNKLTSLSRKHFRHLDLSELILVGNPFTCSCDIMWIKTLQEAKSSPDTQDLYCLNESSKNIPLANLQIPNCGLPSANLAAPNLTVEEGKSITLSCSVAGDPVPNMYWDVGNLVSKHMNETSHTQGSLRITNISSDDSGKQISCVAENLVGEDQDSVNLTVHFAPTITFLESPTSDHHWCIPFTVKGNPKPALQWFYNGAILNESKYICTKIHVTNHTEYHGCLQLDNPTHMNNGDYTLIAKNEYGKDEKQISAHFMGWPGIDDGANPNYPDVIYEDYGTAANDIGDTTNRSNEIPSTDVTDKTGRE

Compound | EC50 [5] | EC50 [6] | IC50 at 6 days [3] | Oxygen radical absorbance capacity, activity equivalent to Trolox [4] | other results
BDNF: Brain-derived neurotrophic factor |  |  |  |  | p-CREB level (p-CREB (S133)): 90–95%; p-TRKB (Y516/Y817) level (p-TRKB (Y516 and Y817)): 96–104%; DsRed fluorescence intensity [1]: 111–112%
Nc1c(/N=N/c2ccc(-c3ccc(/N=N/c4cc(S(=O)(=O)O)c5ccccc5c4N)cc3)cc2)cc(S(=O)(=O)O)c2ccccc12 [Congo red, reference compound] |  |  | 45 µM |  | Neurite branching ([2]; induced untreated 0.87, uninduced 0.99): 1.00–1.06; Neurite length ([2]; induced untreated 27.2 μm, uninduced 30.9 μm): 30.3–31.5 μm
O=c1c(O)c(-c2ccc(O)cc2)oc2cc(O)cc(O)c12 [Kaempferol, kaempferol, reference compound] |  | 28 µM |  |  | 
O=c1cc(-c2ccccc2)oc2c(O)c(O)ccc12 [7,8-DHF, 7,8-dihydroxyflavone, reference compound] |  |  |  |  | Kd [7]: 0.016 ± 0.0034 µM

Continued, in another order:

EC50 [5] | EC50 [6] | Compound | IC50 at 6 days [3] | Oxygen radical absorbance capacity, activity equivalent to Trolox [4] | other results
14 µM | 126 µM | CC(=O)Oc1ccc2cc(C(=O)c3ccccc3)c(=O)oc2c1 [LMDS-4] | 25 µM | 16 μM Trolox | 
21 µM | 132 µM | COc1ccc2cc(C(=O)c3ccccc3)c(=O)oc2c1 [LMDS-3] | 29 µM | 12 μM Trolox | 
